The text below walks through data of patent US11591298B2, “Bisaminoquinoline compounds, pharmaceutical compositions prepared therefrom and their use” (THE TRUSTEES OF THE UNIVERSITY OF PENNSYLVANIA, priority 2011, dated 2023).

pIC50: −log10 of the molar value. Read-outs that look alike come from different tables or passages of the source.

Data set [1] has as its system 1205Lu xenografts. Description: 1205Lu xenograft antitumor activity (14 days). The class given is in vivo, nude mice. The settings on record: end of 14 days of treatment; HCQ 60 mg/kg, Lys05 76 mg/kg i.p. 3/5 days.
For data set [2] the following is noted: human, 24 h, 10 μM. As for the experimental part:
FIGS. 11A, 11B, 11C, 11D. […] (11B) Concentrations of HCQ or Lys05 in cells and tumor whole cell and lysosomal homogenates. […] Lysotracker puncta (red) per cell was scored for three high powered fields. Blue: nuclear DAPI staining. Data presented is mean+SEM (11D) Fluorescence imaging of c8161 cells treated as indicated for 24 hours and stained with acridine orange (AO): orange: Aggregated AO, green: diffuse AO
FIG. 12. High performance liquid chromatography tandem mass spectrometry assay for HCQ and Lys05. 1205Lu cells (24 hours) and 1205Lu tumors (14 days). WC: Whole cell homogenate L: Lysosomal subfraction HCQ: Hydroxychloroquine

Data set [3] can be described thus: Acridine orange staining of acidic vesicles. The settings on record: 24 hours; dose range. The class given is cell-based.
The subject of data set [4] is mice. Conditions: daily i.p. for 48 hours; HCQ 60 mg/kg, Lys05 76 mg/kg. As for the experimental part: Lys05, the trihydrochloride salt of Lys01 was synthesized to enhance aqueous solubility and to enable in vivo studies. […] To investigate the safety of Lys05 and its in vivo effects on autophagy, c8161 xenografts matched for tumor size were treated with intraperitoneal (i.p.) daily PBS, or equimolar doses of HCQ or Lys05 (HCQ 60 mg/kg (138 nmoles/g), Lys05 76 mg/kg (138 nmoles/g)) for 48 hours. […] After 48 hours of treatment mice were euthanized, and tumors were processed for electron microscopy (EM).

Data set [5] relates to LN229 GFP-LC3 cells. Kind of data set: Bafilomycin clamp experiment (LC3 immunoblotting). The class given is cell-based, human. Conditions: 24 hours; HCQ 10 μM, Lys01 10 μM, rapamycin. As for the experimental part: FIGS. 4A, 4B, 4C, 4D. Autophagy inhibition and cytotoxicity of Lys01 compared to HCQ (4A) Representative images of LN229 GFP-LC3 cells treated as indicated for 4 hours. White arrows: small puncta; red arrows: dense puncta. Graphs show mean+/−SEM puncta/cell. (4B) Representative electron micrographs of LN229-GFP-LC3 cells treated (4 hours) with DMSO, HCQ 10 μM, or Lys01 10 μM Arrows: Autophagic vesicles. (4C) LC3 immunoblotting of LN229 cells treated for 24 hours an indicated; calculated ratio of LC3II/LC3I ratios for bafilomycin versus control co-treatment. Above the dashed line indicates an autophagy inducer or control, below the dashed line indicated an autophagy inhibitor. (4D) MTT assay (72 hours) for 4 cell lines. Red: Lys01, Blue: Lys02, Purple: Lys03 Green: Lys04 Orange: HCQ. Values presented are means+/−SEM with 5 replicates per treatment.
To further characterize the effects of Lys01 on autophagy, LN229 GFP-LC3 cells were treated with Lys01 or HCQ (FIG. 4A). […] Electron micrographs of LN229 GFP-LC3 cells treated with DMSO, HCQ, or Lys01 further characterized the significant morphological difference in the size and number of vesicles produced by blockade of autophagy with these agents (FIG. 4B). Thus, Lys01 produces morphological changes more pronounced than HCQ, a known lysosomal inhibitor, at 10-fold lower concentrations. […]
(Immunoblotting shows a protein as a band on a membrane.)

The format of data set [6] is cell-based. The settings on record: within 30 minutes.
Data set [7] deals with LN229 (glioma), 1205Lu (melanoma), HT-29 (colon) and c8161 (melanoma) cells. Description: MTT assay (72 hours) in 4 cell lines. The class given is cell-based. Conditions: range over the 4 cell lines tested. As for the experimental part: FIGS. 4A, 4B, 4C, 4D. […] White arrows: small puncta; red arrows: dense puncta. Graphs show mean+/−SEM puncta/cell. (4B) Representative electron micrographs of LN229-GFP-LC3 cells treated (4 hours) with DMSO, HCQ 10 μM, or Lys01 10 μM Arrows: Autophagic vesicles. (4C) LC3 immunoblotting of LN229 cells treated for 24 hours an indicated; calculated ratio of LC3II/LC3I ratios for bafilomycin versus control co-treatment. […] (4D) MTT assay (72 hours) for 4 cell lines. Red: Lys01, Blue: Lys02, Purple: Lys03 Green: Lys04 Orange: HCQ. Values presented are means+/−SEM with 5 replicates per treatment.
The MTT assay was used to assess viable cells at 72 hours.
(In general: Tetrazolium assays rely on reduction of a dye to a coloured formazan, in cell work by metabolically active cells.)

Data set [8] has as its system LN229 GFP-LC3 cells. Description: GFP-LC3 puncta imaging in LN229 GFP-LC3 cells. Format: cell-based, human. The settings on record: within 4 hours.
The test system of data set [9] is LC3II/LC3I ratio in LN229 cells. Kind of data set: LC3 immunoblotting (LC3II/LC3I ratio) in LN229 cells. The class given is cell-based, human. Conditions: 4 hours. As for the experimental part: FIG. 3. Effects of Lys01-Lys04 on LC3 immunoblotting Immunoblotting and quantification of LC3II/LC3I ratio in lysates from LN229 cells treated for 4 hours. The graphs show (mean+/−SD) LC3II/LC3I ratios of each treatment normalized to the LC3II/LC3I ratio of control treated cells for each experiment.
LN229 (human glioblastoma) were treated with Lys01 and derivatives Lys02, Lys03, Lys04, HCQ and CQ. […] LC3 is a ubiquitin-like protein which exists as an unconjugated form (LC3I) or conjugated to AV membranes (LC3II) (25). The ratio of LC3II/LC3I reflects the accumulation of AV in cells, and therefore effective autophagy inhibition.

For the compound `CCN(CCO)CCCC(C)Nc1ccnc2cc(Cl)ccc12` (stereo not shown) [HCQ, hydroxychloroquine, reference compound], the “increase in AV/cell compared to control treated tumors” value in [1] was 3 fold. In addition, the “concentration in the lysosomal fraction” value in [2] was found to be 13 µM. Also, in [2], the “concentration in the whole cell homogenate” value is 8 µM. Further, in data set [3], the “acidic vesicles (acridine orange)” value was “dose-dependent accumulation of acidic vesicles”. Also, in data set [4], the mortality entry is listed as “no mice died”. The “LC3II/LC3I ratio in bafilomycin treated cells compared to control cells” value in data set [5] was “did not demonstrate an increase”. Besides, the results for the Lysotracker-positive puncta entry in [6] (10 μM) and in data set [6] (100 μM) were “not observed” and “significant decrease”, respectively. Also, the negative-log IC50 (pIC50) in [7] is 4.38 to 4.82. Further, the figures for the GFP-LC3 punctate fluorescence result in [8] (1 μM), in data set [8] (10 μM) and in data set [8] (100 μM) were “observed in a minority of cells”, “numerous small puncta” and “larger dense puncta”, respectively.
In data set [7], `CN(CCN)CCNc1ccnc2cc(Cl)ccc12` [Lys02] had a negative-log IC50 (pIC50) of 4.04 to 4.46.
Same read-out and setting: the value for `COc1ccc2c(NCCN(C)CCNc3ccnc4cc(OC)ccc34)ccnc2c1` [Lys03] was 4.28 to 4.62.
Take `Clc1ccc2c(NCCOCCOCCNc3ccnc4cc(Cl)ccc34)ccnc2c1` [Lys04]: the “dose-response relationship / potency in LC3 autophagy assay” value in data set [9] was “intermediate potency”. This compound also had a pIC50 in [7] of 4.77 to 5.00.

The term pIC50 denotes −log10 of the IC50, conventionally taken in molar units. High values mean a small IC50, low ones a large IC50.
